Experimental findings from patent US9526717B2, “Composition for treating immune diseases containing daurinol compound as active ingredient” (THE CATHOLIC UNIVERSITY OF KOREA INDUSTRY-ACADEMIC …, priority 2013, dated 2016) are described below.

For one assay, the system named is splenocyte cell line. As to the kind of experiment: IL-17 secretion of anti-CD3 treated splenocyte cell line (sandwich ELISA). The format is cell-based. Conditions: anti-CD3 antibodies 0.5 μg/mL. How it is done:
For this purpose, a splenocyte cell line was treated with anti-CD3 antibodies (0.5 μg/mL) to induce the secretion of IL-17, or treated with LPS (100 ng/mL) to induce the secretion of TNF-α. […] The resultant was reacted in a 96-well plate with monoclonal anti-IL-17 or anti-TNF-α (2 μg/mL) at 4° C. overnight, and upon reaction, the non-specific binding was blocked using a blocking solution (1% BSA/PBST). IL-17 recombinant or TNF-α in a half amount was continuously diluted and used as standards, and the supernatant of cell culture was reacted at room temperature for 2 hours. Then, the biotinylated anti-IL-17 was reacted at room temperature for 2 hours, washed 4 times, and added with ExtraAvidin-alkaline phosphatase conjugate after dilution, and reacted at room temperature for 2 hours. Subsequently, PNPP/DEA solution was added thereto to fix color and absorbance was measured at 405 nm.
In general terms: In an ELISA, binding on a coated surface is turned into a signal by an enzyme label.

For assay [1], the system named is phospho STAT3 (p705, p′727). As to the kind of experiment: Western blot of phospho STAT3 in CD4+T cells. The class given is cell-based. Conditions: CD4+T cells of normal mouse, daurinol 5 μM, anti-CD3 0.5 μg/mL, 3 days. As for the experimental part:
For the observation of changes in intracellular cell signaling factors treated with daurinol, a western blot analysis was performed. For this purpose, CD4+T cells were isolated from a normal mouse, treated with daurinol (5 μM) in a condition already treated with anti-CD3 antibodies (0.5 μg/mL), cultured for 3 days, and the cells were dissolved and proteins were extracted therefrom. Then, the extracted proteins were subjected to SDS-PAGE electrophoresis, and the proteins were electrically transferred onto a nitrocellulose membrane, subjected to a blocking reaction with 5% skim milk for 1 hour, reacted by attaching primary antibodies to STAT3, STAT3p705, STAT3p727, and phospho m-TOR thereto, reacting again by attaching secondary antibodies to the same, and sensitized onto a Kodak X-ray using enhanced chemilunimoecence (ECL), and thereby the protein expression levels of the genes were analyzed.

The subject of assay [2] is CD4+ T cells. The assay is described as follows: Inhibition of T cell proliferation in allogenic reaction in vitro. The class given is cell-based, mouse. Conditions: daurinol 0.5, 2, 10 and 20 μM. As for the experimental part: (§1) For the confirmation of the effect of the daurinol compound on the inhibition of T cell proliferation and the expression amount of IL-17, the CD4+ T cells (2×10^5 cells) of a normal recipient (Balb/c, responder), and the T cell-removed splenocytes (2×10^5 cells) derived from a recipient (homogenic) or the splenocytes (2×10^5 cells) derived from a donor (C57BL/6, stimulator, allogenic) exposed to irradiation were added to each well of a 96-well round bottom plate, mixed, and cultured in vitro. In particular, the T cell proliferation and the secretion of IL-17 when an allogenic reaction was untreated with daurinol or treated with daurinol at 0.5 μM, 2 μM, 10 μM, and 20 μM, respectively, were observed.

For assay [3], the system named is CD4+ T cells. As to the kind of experiment: IL-17 expression in allogenic reaction in vitro. The class given is cell-based, mouse. Conditions: daurinol 0.5, 2, 10 and 20 μM. How it is done: as §1
In assay [4] the test system is animal model with induced inflammatory bowel disease. The assay is described as follows: Weight, disease activity index and length of intestine in animal model with inflammatory bowel disease. The class given is in vivo, mouse. The text has this: For the confirmation of the effect of the daurinol compound of the present invention on the treatment of inflammatory bowel disease, the present inventors first constructed an animal model with induced inflammatory bowel disease. For the experimental model, C57BL/6(H-2kb) mice were used. For the construction of an animal model with induced inflammatory bowel disease, the mice were fed with 3.5% dextran sulfate sodium (DSS) and water for a week, thereby preparing an animal model with induced inflammatory bowel disease. The present inventors divided the experimental animals into a normal control group, a group of an animal model with induced inflammatory bowel disease, and a group of an animal model with induced inflammatory bowel disease treated with daurinol or a TNF-α inhibitor, and the group treated with daurinol was administered orally and intrarectally with daurinol (20 mg/kg) from the 4th day after the induction with the disease. […] Additionally, one of the features of inflammatory bowel disease is that the damage and shortening of the length of the large intestine are related to the disease activity index. For the analysis of the therapeutic effect of daurinol on the inflammatory bowel disease, the experimental animals were euthanased two weeks after the daurinol treatment, and the length of their intestines were measured.

The subject of assay [5] is animal model with inflammatory bowel disease. The assay is described as follows: Expression of inflammatory cytokines in the tissues of the large intestine of IBD model. The class given is in vivo, mouse. Conditions: daurinol treated. The source says:
For the confirmation of the effect of the daurinol compound of the present invention on the treatment of inflammatory bowel disease, the present inventors first constructed an animal model with induced inflammatory bowel disease. For the experimental model, C57BL/6(H-2kb) mice were used. For the construction of an animal model with induced inflammatory bowel disease, the mice were fed with 3.5% dextran sulfate sodium (DSS) and water for a week, thereby preparing an animal model with induced inflammatory bowel disease. The present inventors divided the experimental animals into a normal control group, a group of an animal model with induced inflammatory bowel disease, and a group of an animal model with induced inflammatory bowel disease treated with daurinol or a TNF-α inhibitor, and the group treated with daurinol was administered orally and intrarectally with daurinol (20 mg/kg) from the 4th day after the induction with the disease.

Assay [6] concerns mouse with induced inflammatory bowel disease (IBD). As to the kind of experiment: Inflammatory cytokines in the serum of IBD animal model (ELISA). The class given is in vivo. As to conditions: IBD mice treated with daurinol. The source says: For the confirmation of the effect of the daurinol compound of the present invention on the treatment of inflammatory bowel disease, the present inventors first constructed an animal model with induced inflammatory bowel disease. For the experimental model, C57BL/6(H-2kb) mice were used. For the construction of an animal model with induced inflammatory bowel disease, the mice were fed with 3.5% dextran sulfate sodium (DSS) and water for a week, thereby preparing an animal model with induced inflammatory bowel disease.
The present inventors divided the experimental animals into a normal control group, a group of an animal model with induced inflammatory bowel disease, and a group of an animal model with induced inflammatory bowel disease treated with daurinol or a TNF-α inhibitor, and the group treated with daurinol was administered orally and intrarectally with daurinol (20 mg/kg) from the 4th day after the induction with the disease.
Sera were isolated from a mouse with induced inflammatory bowel disease (IBD), and mice treated with daurinol and TNF-α inhibitor, respectively. The levels of IL-17, IFNγ, IL-6, and the like, which are inflammatory cytokines, in the isolated sera were measured by ELISA assay.

The test system of assay [7] is splenocytes of the animal model with lupus. The assay is described as follows: TNF-α level in splenocytes of animal model with lupus (ELISA). The format is cell-based. Conditions: daurinol 1 μM and 5 μM, anti-CD3 0.5 μg/mL or LPS 100 ng/mL, three days. How it is done:
Additionally, for the confirmation of the effect of controlling the formation of inflammatory cytokines, the splenocytes of the animal model with lupus were treated with daurinol (1 μM and 5 μM) and anti-CD3 (0.5 μg/mL) or LPS (100 ng/mL) for three days and the levels of IL-17 and TNF-α inflammatory cytokines were evaluated by ELISA assay.

`COc1cc2c(-c3ccc4c(c3)OCO4)c3c(cc2cc1O)COC3=O` [daurinol]: the “secretion of IL-17 decreased to” value in the assay with splenocyte cell line (2 μM daurinol) is given as 50%. Also, the “secretion of IL-17” value in the assay with splenocyte cell line (20 μM daurinol) is “no secretion was observed”. In addition, the “expression of phospho STAT3 (p705, p′727)” value in assay [1] is “significant decrease”. The T cell proliferation result in the assay on CD4+ T cells [2] is recorded as “inhibited T cell proliferation in a dose-dependent manner”. For the same compound, in the assay on CD4+ T cells [3], the “expression of IL-17” value is reported as “inhibited the expression of IL-17”. For the same compound, in assay [4] (DSS-induced IBD C57BL/6 mice, daurinol 20 mg/kg orally and intrarectally from 4th day), the “disease activity index (DAI)” value is “significant decrease”. Also, the weight result in assay [4] (DSS-induced IBD C57BL/6 mice, daurinol 20 mg/kg orally and intrarectally from 4th day, vs IBD group) is “significant improvement in weight”. Besides, the “length of the intestine” value in assay [4] (DSS-induced IBD mice, two weeks after the daurinol treatment, vs IBD group) is “significant increase in the length of the intestine”. Moreover, in assay [5], the “expression of IL-1b in the tissues of the large intestine” value is on record as “significantly inhibit”, the “expression of IL-6 in the tissues of the large intestine” value is reported as “significantly inhibit”, the “expression of IL-8 in the tissues of the large intestine” value was “significantly inhibit” and the “expression of IL-17 in the tissues of the large intestine” value was “significantly inhibit”. In addition, the “expression of TNF-α in the tissues of the large intestine” value in assay [5] was “significantly inhibit”. In assay [6], the “level of IFNγ in serum (ELISA)” value is on record as “significantly inhibits”, the “level of IL-6 in serum (ELISA)” value is given as “significantly inhibits” and the “level of IL-17 in serum (ELISA)” value is reported as “significantly inhibits”. For the same compound, in assay [7], the “expression of TNF-α (ELISA)” value was “inhibited the expression of IL-17 and TNF-α in a dose-dependent manner”.
